Laboratory results published in US12637413B2, “Fatty acid amide hydrolase (FAAH) cleavable prodrugs of thyromimetics and combination with peripherally restricted FAAH inhibitors” (Autobahn Therapeutics, Inc., priority 2021, dated 2026).
Read-outs that look alike come from different tables or passages of the source.

Columns and labels:
T3-regulated genes = experiment: gene expression in brain and liver after 7 days PO QD dosing; format: in vivo, Female C57BL/6 mice; conditions: Mus musculus, PO QD 7 days, 4 or 8 h after last dose
Procedure: (§1) Female C57BL/6 mice (n=5/group), 6-8 weeks old, were acclimated to the study room for at least 3 days before dose administration in the studies. Mice were dosed at 5 mL/kg based on most recent body weight, collected once for the duration of the study. Based on most recent body weight, collected once for the duration of the study, mice were placed into weight-matched treatment dosing cohorts. Mice were given a single administration of PFI or vehicle orally (PO) daily (n=5/group) for 7 days at time=−1 hour. Following the PFI (100 μg/kg) or vehicle dose (10 mL/kg, p.o.), animals were given test article daily at time=0 hour. Test article administration one of eight dose levels (0.1, 0.3, 1, 3, 10, 30, 100 or 300 μg/kg) on Days 1-7 for a total of seven doses. Mice were dosed PO, QD for 7 days with (A) active metabolite or (B) prodrug alone; (C) prodrug+PFI (LL-650177) or (D) prodrug+GFI. […] RNA from samples harvested 4 hours after final dose was quantified using a hybridization-based in situ RNA quantification method (NanoString, Seattle, WA), as described below. RNA from samples harvested 8 hours after final dose was quantified using a hybridization-based in situ RNA quantification method (QuantiGene Plex), as described below. […]

T4 = experiment: plasma T4 (ELISA) after 7 days PO QD dosing; format: in vivo, Female C57BL/6 mice; conditions: Mus musculus; effects on plasma T4, PO QD 7 days, 4 or 8 h after last dose
Procedure: as §1, with “hour.” for “hour. Test article administration one of eight dose levels (0.1, 0.3, 1, 3, 10, 30, 100 or 300 μg/kg) on Days 1-7 for a total of seven doses. Mice were dosed PO, QD for 7 days with (A) active metabolite or (B) prodrug alone; (C) prodrug+PFI (LL-650177) or (D) prodrug+GFI.”
T4 was measured in terminal plasma samples using an ELISA kit (Biovision, Inc., Thyroxine [T4] [Mouse/Rat] ELISA Kit, Cat #: K7421-100). […] Absorbance was read at 450 nm within 15 min of addition of the Stop Solution using a Varioskan Lux plate reader (ThermoFisher Scientific, Carlsbad, CA). […] Unknown sample concentrations were determined using GraphPad Prism software (GraphPad Prism 9.0.2, GraphPad Software, San Diego, CA). […]

CNC(=O)COc1cc(Cl)c(Cc2ccc(O)c(C(C)C)c2)c(Cl)c1 [Compound 1]
ED50 (T3-regulated genes; gene expression in brain, read-out: Brain (ED50 mg/kg)): 0.044 mg/kg | ED50 (T3-regulated genes; gene expression in liver, read-out: Liver (ED50 mg/kg)): 0.0025 mg/kg | ED50 (T4): 3.4 µg/kg
